Experimental data as given in PubChem BioAssay (NCI).
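Results reflect a 48-hour exposure of cells in 96-well plates to compound at five concentrations. TGI: concentration producing complete growth inhibition.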

Columns and labels:
Experiment in all cases: NCI-60 cell line screen, 48 h
SR leukemia = tested on: SR leukemia
SNB-75 CNS = tested on: SNB-75 CNS
A498 renal = tested on: A498 renal
RXF 393 renal = tested on: RXF 393 renal
KM12 colon = tested on: KM12 colon
EKVX NSCLC = tested on: EKVX NSCLC
OVCAR-3 ovarian = tested on: OVCAR-3 ovarian
ACHN renal = tested on: ACHN renal
MDA-MB-435 = tested on: MDA-MB-435
HCC-2998 colon = tested on: HCC-2998 colon
OVCAR-8 ovarian = tested on: OVCAR-8 ovarian
OVCAR-4 ovarian = tested on: OVCAR-4 ovarian
MALME-3M melanoma = tested on: MALME-3M melanoma
786-0 renal = tested on: 786-0 renal
LOX IMVI melanoma = tested on: LOX IMVI melanoma
SK-MEL-28 melanoma = tested on: SK-MEL-28 melanoma
U251 CNS = tested on: U251 CNS
UACC-257 melanoma = tested on: UACC-257 melanoma
MCF7 breast = tested on: MCF7 breast
COLO 205 colon = tested on: COLO 205 colon
NCI-H23 lung = tested on: NCI-H23 lung
SF-295 CNS = tested on: SF-295 CNS
UACC-62 melanoma = tested on: UACC-62 melanoma
SK-MEL-2 melanoma = tested on: SK-MEL-2 melanoma
HOP-62 NSCLC = tested on: HOP-62 NSCLC
SK-MEL-5 melanoma = tested on: SK-MEL-5 melanoma
HCT-116 colon = tested on: HCT-116 colon
IGROV1 ovarian = tested on: IGROV1 ovarian
NCI-H522 lung = tested on: NCI-H522 lung
SW-620 colon = tested on: SW-620 colon
SF-539 CNS = tested on: SF-539 CNS
BT-549 breast = tested on: BT-549 breast
NCI-H460 lung = tested on: NCI-H460 lung
SN12C renal = tested on: SN12C renal
OVCAR-5 ovarian = tested on: OVCAR-5 ovarian
NCI/ADR-RES ovarian = tested on: NCI/ADR-RES ovarian
SK-OV-3 ovarian = tested on: SK-OV-3 ovarian
NCI-H226 lung = tested on: NCI-H226 lung
T-47D breast = tested on: T-47D breast
RPMI-8226 leukemia = tested on: RPMI-8226 leukemia
HS 578T breast = tested on: HS 578T breast
CCRF-CEM leukemia = tested on: CCRF-CEM leukemia
A549 NSCLC = tested on: A549 NSCLC
TK-10 renal = tested on: TK-10 renal
SF-268 CNS = tested on: SF-268 CNS
HOP-92 NSCLC = tested on: HOP-92 NSCLC
PC-3 prostate = tested on: PC-3 prostate
HT29 colon = tested on: HT29 colon
HCT-15 colon = tested on: HCT-15 colon
MOLT-4 leukemia = tested on: MOLT-4 leukemia
SNB-19 CNS = tested on: SNB-19 CNS
MDA-MB-231 breast = tested on: MDA-MB-231 breast
M14 melanoma = tested on: M14 melanoma
MDA-N = tested on: MDA-N
UO-31 renal = tested on: UO-31 renal
DU-145 prostate = tested on: DU-145 prostate
CAKI-1 renal = tested on: CAKI-1 renal
HL-60(TB) leukemia = tested on: HL-60(TB) leukemia
K-562 leukemia = tested on: K-562 leukemia

## CCCCn1c2c(n(CCCC)c1=S)-c1c(n(CCCC)c(=S)n1CCCC)SSSS2
SR leukemia
  TGI: > 100 µM
SNB-75 CNS
  TGI: 37.7 µM
A498 renal
  TGI: > 100 µM
RXF 393 renal
  TGI: 14.6 µM
KM12 colon
  TGI: > 33.1 µM
EKVX NSCLC
  TGI: 23.2 µM
OVCAR-3 ovarian
  TGI: 2.65 µM
ACHN renal
  TGI: 7 µM
MDA-MB-435
  TGI: 23.9 µM
HCC-2998 colon
  TGI: 26.7 µM
OVCAR-8 ovarian
  TGI: 18.1 µM
OVCAR-4 ovarian
  TGI: 9.6 µM
MALME-3M melanoma
  TGI: 2.03 µM
786-0 renal
  TGI: 19.4 µM
LOX IMVI melanoma
  TGI: 12.1 µM
SK-MEL-28 melanoma
  TGI: 31.6 µM
U251 CNS
  TGI: 12.9 µM
UACC-257 melanoma
  TGI: 9.13 µM
MCF7 breast
  TGI: > 100 µM
COLO 205 colon
  TGI: 1.68 µM
NCI-H23 lung
  TGI: 14.3 µM
SF-295 CNS
  TGI: > 100 µM
UACC-62 melanoma
  TGI: 4.87 µM
SK-MEL-2 melanoma
  TGI: 6.8 µM
HOP-62 NSCLC
  TGI: 36.6 µM
SK-MEL-5 melanoma
  TGI: 8.95 µM
HCT-116 colon
  TGI: 11.8 µM
IGROV1 ovarian
  TGI: 4.2 µM
NCI-H522 lung
  TGI: 0.274 µM
SW-620 colon
  TGI: 3.8 µM
SF-539 CNS
  TGI: 2.94 µM
BT-549 breast
  TGI: 28.1 µM
NCI-H460 lung
  TGI: > 93.6 µM
SN12C renal
  TGI: 14.7 µM
OVCAR-5 ovarian
  TGI: 1.66 µM
NCI/ADR-RES ovarian
  TGI: 71.5 µM
SK-OV-3 ovarian
  TGI: > 100 µM
NCI-H226 lung
  TGI: 80.8 µM
T-47D breast
  TGI: 1.82 µM
RPMI-8226 leukemia
  TGI: 10.2 µM
HS 578T breast
  TGI: 46.3 µM
CCRF-CEM leukemia
  TGI: > 100 µM
A549 NSCLC
  TGI: > 95.1 µM
TK-10 renal
  TGI: 22.9 µM
SF-268 CNS
  TGI: 21.4 µM
HOP-92 NSCLC
  TGI: 6.04 µM
PC-3 prostate
  TGI: 7.24 µM
HT29 colon
  TGI: 7.91 µM
HCT-15 colon
  TGI: 4.45 µM
MOLT-4 leukemia
  TGI: > 36.2 µM
SNB-19 CNS
  TGI: > 100 µM
MDA-MB-231 breast
  TGI: 2.28 µM
M14 melanoma
  TGI: 17.5 µM
MDA-N
  TGI: 23.2 µM
UO-31 renal
  TGI: 2.64 µM
DU-145 prostate
  TGI: > 35.3 µM

## O=[N+]([O-])c1cc(-[n+]2cc([O-])on2)ccc1F
SR leukemia
  TGI: > 100 µM
SNB-75 CNS
  TGI: 27 µM
CAKI-1 renal
  TGI: 4.2 µM
RXF 393 renal
  TGI: 27.2 µM
KM12 colon
  TGI: 31.5 µM
EKVX NSCLC
  TGI: 34.8 µM
OVCAR-3 ovarian
  TGI: 32.6 µM
ACHN renal
  TGI: 30.7 µM
MDA-MB-435
  TGI: 29.8 µM
HCC-2998 colon
  TGI: 28.6 µM
OVCAR-8 ovarian
  TGI: 30.9 µM
OVCAR-4 ovarian
  TGI: 30.4 µM
MALME-3M melanoma
  TGI: 29 µM
786-0 renal
  TGI: 24 µM
LOX IMVI melanoma
  TGI: 31.1 µM
SK-MEL-28 melanoma
  TGI: 29.8 µM
U251 CNS
  TGI: 32.4 µM
UACC-257 melanoma
  TGI: 31.6 µM
MCF7 breast
  TGI: 29.4 µM
COLO 205 colon
  TGI: 35.2 µM
NCI-H23 lung
  TGI: 33.5 µM
SF-295 CNS
  TGI: 31.5 µM
UACC-62 melanoma
  TGI: 30.8 µM
SK-MEL-2 melanoma
  TGI: 31 µM
HOP-62 NSCLC
  TGI: 30.3 µM
SK-MEL-5 melanoma
  TGI: 28.4 µM
HCT-116 colon
  TGI: 28.6 µM
IGROV1 ovarian
  TGI: 28.3 µM
NCI-H522 lung
  TGI: 22.2 µM
SW-620 colon
  TGI: 38.3 µM
BT-549 breast
  TGI: 31.3 µM
NCI-H460 lung
  TGI: 39.3 µM
HL-60(TB) leukemia
  TGI: 49 µM
SN12C renal
  TGI: 31.2 µM
OVCAR-5 ovarian
  TGI: 31.2 µM
NCI/ADR-RES ovarian
  TGI: 52 µM
SK-OV-3 ovarian
  TGI: 35.8 µM
NCI-H226 lung
  TGI: 47 µM
T-47D breast
  TGI: 15.5 µM
RPMI-8226 leukemia
  TGI: > 100 µM
HS 578T breast
  TGI: 61.5 µM
CCRF-CEM leukemia
  TGI: 38.6 µM
A549 NSCLC
  TGI: 33.4 µM
TK-10 renal
  TGI: 33.1 µM
SF-268 CNS
  TGI: 28.9 µM
HOP-92 NSCLC
  TGI: 32.6 µM
PC-3 prostate
  TGI: 35.1 µM
HT29 colon
  TGI: 33.3 µM
HCT-15 colon
  TGI: 52.8 µM
SNB-19 CNS
  TGI: 21.3 µM
K-562 leukemia
  TGI: > 100 µM
MDA-MB-231 breast
  TGI: 38 µM
M14 melanoma
  TGI: 29.6 µM
MDA-N
  TGI: 30.7 µM
UO-31 renal
  TGI: 13.1 µM
DU-145 prostate
  TGI: 25.4 µM

## CN(C1=NCCO1)c1cccc2c1CCCC2
SR leukemia
  TGI: > 10 µM
A498 renal
  TGI: 9.35 µM
CAKI-1 renal
  TGI: > 10 µM
RXF 393 renal
  TGI: > 10 µM
KM12 colon
  TGI: > 10 µM
EKVX NSCLC
  TGI: > 10 µM
ACHN renal
  TGI: 8.09 µM
MDA-MB-435
  TGI: > 10 µM
HCC-2998 colon
  TGI: > 10 µM
OVCAR-8 ovarian
  TGI: > 10 µM
OVCAR-4 ovarian
  TGI: 7.78 µM
MALME-3M melanoma
  TGI: 9.3 µM
786-0 renal
  TGI: > 10 µM
LOX IMVI melanoma
  TGI: 5.27 µM
SK-MEL-28 melanoma
  TGI: > 10 µM
U251 CNS
  TGI: > 10 µM
UACC-257 melanoma
  TGI: > 10 µM
MCF7 breast
  TGI: > 10 µM
COLO 205 colon
  TGI: 3.4 µM
NCI-H23 lung
  TGI: 8.81 µM
SF-295 CNS
  TGI: > 10 µM
UACC-62 melanoma
  TGI: > 10 µM
SK-MEL-2 melanoma
  TGI: > 10 µM
HOP-62 NSCLC
  TGI: > 10 µM
SK-MEL-5 melanoma
  TGI: 4.84 µM
HCT-116 colon
  TGI: 8.95 µM
IGROV1 ovarian
  TGI: 8.35 µM
NCI-H522 lung
  TGI: > 10 µM
SW-620 colon
  TGI: > 10 µM
SF-539 CNS
  TGI: > 10 µM
BT-549 breast
  TGI: > 10 µM
NCI-H460 lung
  TGI: > 10 µM
HL-60(TB) leukemia
  TGI: > 10 µM
SN12C renal
  TGI: > 10 µM
OVCAR-5 ovarian
  TGI: > 10 µM
NCI/ADR-RES ovarian
  TGI: > 10 µM
SK-OV-3 ovarian
  TGI: > 10 µM
NCI-H226 lung
  TGI: 6.14 µM
T-47D breast
  TGI: > 10 µM
RPMI-8226 leukemia
  TGI: > 10 µM
HS 578T breast
  TGI: > 10 µM
CCRF-CEM leukemia
  TGI: 8.06 µM
A549 NSCLC
  TGI: > 10 µM
TK-10 renal
  TGI: > 10 µM
SF-268 CNS
  TGI: > 10 µM
PC-3 prostate
  TGI: 8.53 µM
HT29 colon
  TGI: 5.2 µM
HCT-15 colon
  TGI: > 10 µM
MOLT-4 leukemia
  TGI: > 10 µM
SNB-19 CNS
  TGI: > 10 µM
K-562 leukemia
  TGI: > 10 µM
MDA-MB-231 breast
  TGI: 5.28 µM
M14 melanoma
  TGI: 6.09 µM
MDA-N
  TGI: > 10 µM
DU-145 prostate
  TGI: > 10 µM
